In patent US7482344B2, “Tricyclic steroid hormone nuclear receptor modulators” (Eli Lilly and Company, priority 2003, dated 2009):

Key:
MR [1] = molecular target: T1, MR (Homo sapiens, UniProt P08235); assay: Mineralocorticoid Receptor Binding Assay (Method 1), [3H]-aldosterone competition; set-up: The full length human MR gene is cloned from a human kidney or human brain cDNA library; made in house; host or cells: SF9 insect cells (pAcHLT baculovirus transfer vector); details: human MR expressed in Sf9 cells, 0.5 nM [3H]-aldosterone
T1 sequence (P08235 1-984): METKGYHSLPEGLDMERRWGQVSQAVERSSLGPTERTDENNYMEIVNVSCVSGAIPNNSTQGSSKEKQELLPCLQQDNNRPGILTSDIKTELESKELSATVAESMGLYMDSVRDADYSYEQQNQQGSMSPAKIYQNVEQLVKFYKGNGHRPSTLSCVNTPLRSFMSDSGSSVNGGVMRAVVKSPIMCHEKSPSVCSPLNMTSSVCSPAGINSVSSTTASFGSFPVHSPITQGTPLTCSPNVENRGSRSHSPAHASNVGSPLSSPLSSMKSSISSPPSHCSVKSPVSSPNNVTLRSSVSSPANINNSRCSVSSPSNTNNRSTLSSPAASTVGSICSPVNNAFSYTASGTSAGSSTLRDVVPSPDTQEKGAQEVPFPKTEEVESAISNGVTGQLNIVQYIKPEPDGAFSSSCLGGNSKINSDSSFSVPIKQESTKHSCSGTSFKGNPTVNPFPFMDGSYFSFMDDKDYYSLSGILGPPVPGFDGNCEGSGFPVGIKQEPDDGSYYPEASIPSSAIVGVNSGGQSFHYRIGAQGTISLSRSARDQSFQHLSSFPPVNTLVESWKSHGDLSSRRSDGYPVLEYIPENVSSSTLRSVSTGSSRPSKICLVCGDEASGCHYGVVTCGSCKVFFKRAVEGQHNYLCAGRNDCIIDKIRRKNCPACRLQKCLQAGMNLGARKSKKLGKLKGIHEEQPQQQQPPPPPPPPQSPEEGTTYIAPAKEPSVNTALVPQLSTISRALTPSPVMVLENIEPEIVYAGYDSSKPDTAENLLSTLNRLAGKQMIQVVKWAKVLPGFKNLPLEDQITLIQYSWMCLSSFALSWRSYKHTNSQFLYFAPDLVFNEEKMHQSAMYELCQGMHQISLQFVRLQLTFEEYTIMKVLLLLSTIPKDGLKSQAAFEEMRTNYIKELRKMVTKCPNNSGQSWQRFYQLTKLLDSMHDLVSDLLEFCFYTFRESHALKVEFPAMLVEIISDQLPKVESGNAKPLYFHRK
Description: Mineralocorticoid Receptor Binding Assay (Method 1):
The full length human MR gene is cloned from a human kidney or human brain cDNA library. Briefly, using synthetic oligonucleotide primers (Eli Lilly and Company, Indianapolis) directed to nucleotides 20-54 and 3700-3666 of the human MR, polymerase chain reaction (PCR) is performed under standard conditions using a human cDNA library. The PCR reaction is performed in a final volume of 50 μl containing about 1μl of a 50× stock solution of polymerase; about 1 μl of a 50× stock solution of dNTP; about 5μl of an appropriate PCR buffer; about 1 μl of each primer; about 5 μl of a H. kidney or H. brain cDNA library; and about 36 μl of water. The reaction is allowed to denature for about 30 seconds at 95 degrees Celsius, anneal for about 30 seconds at 55 degrees Celsius, and extend for about 5 minutes at 72 degrees Celsius, the sequence being repeated for a total of about 35 cycles. The desired PCR product (3.68 Kb) is confirmed by gel electrophoresis and subsequently cut from the gel and stored at about −20 degrees Celsius until extraction. To extract the cDNA product from the agarose gel, the QIAEX II Gel Extraction protocol (QIAGEN, Inc.) is employed according to the manufacturer's instructions. Following extraction, the MR cDNA is cloned into an appropriate cloning vector (Zero Blunt TOPO PCR Cloning Kit (Invitrogen, Inc.) and a pAcHLT-baculovirus transfer vector (B.D./Pharminogen), then expressed in SF9 insect cells, essentially according to manufacturer's instructions. Sf9 cells are grown at a scale where gram quantity cell pellets are obtained for subsequent use in the MR binding assay. Harvested cell pellets are lysed by repeated freeze-thaw cycles (about 4) in a suitable lysis buffer then centrifuged at about 1×10^3G (with the supernatant being saved for future assays).
MR binding assays are performed in a final total volume of about 250 μl containing about 20-25 μg of protein and 0.5 nM of [^3H]-aldosterone plus varying concentrations of test compound or vehicle. The assay binding buffer consists of 30 mM sodium molybdate, 30 mM of TRIS-HCl, 5 mM sodium phosphate, 5 mM sodium pyrophosphate, and about 10% glycerol, pH=7.5.
Briefly, assays are prepared at RT in 96-well Falcon 3072 plates, each well containing 210 μof binding buffer, 10 μl of […], 10 μl of test compound/vehicle, and 20 μl of the resuspended receptor protein extract. Incubations are carried out at 4 degrees Celsius with shaking for about 16 hours. 200 μl aliquots of each incubation are filtered onto Millipore HA 0.45 micron 96-well filter plates, pre-moistened with cold 30 mM TRIS-HCl. The filter plates are suctioned dry with vacuum and immediately washed 3× with cold 30 mM TRIS-HCl. The plates are then punched out and the amount of receptor-ligand complex is determined by liquid scintillation counting using 4 ml of Ready Protein Plus™ liquid scintillation cocktail.

glucocorticoid receptor = molecular target: T2, glucocorticoid receptor (Homo sapiens, UniProt P04150); assay: Glucocorticoid Receptor Binding Assay (Method 1), [3H]-dexamethasone competition in A549 cell extract; details: 1.86 nM [3H]-dexamethasone, read-out: GR Ki (nM) Method 1
T2 construct: host or cells: A549 human lung epithelial cells
T2 sequence (P04150 1-777): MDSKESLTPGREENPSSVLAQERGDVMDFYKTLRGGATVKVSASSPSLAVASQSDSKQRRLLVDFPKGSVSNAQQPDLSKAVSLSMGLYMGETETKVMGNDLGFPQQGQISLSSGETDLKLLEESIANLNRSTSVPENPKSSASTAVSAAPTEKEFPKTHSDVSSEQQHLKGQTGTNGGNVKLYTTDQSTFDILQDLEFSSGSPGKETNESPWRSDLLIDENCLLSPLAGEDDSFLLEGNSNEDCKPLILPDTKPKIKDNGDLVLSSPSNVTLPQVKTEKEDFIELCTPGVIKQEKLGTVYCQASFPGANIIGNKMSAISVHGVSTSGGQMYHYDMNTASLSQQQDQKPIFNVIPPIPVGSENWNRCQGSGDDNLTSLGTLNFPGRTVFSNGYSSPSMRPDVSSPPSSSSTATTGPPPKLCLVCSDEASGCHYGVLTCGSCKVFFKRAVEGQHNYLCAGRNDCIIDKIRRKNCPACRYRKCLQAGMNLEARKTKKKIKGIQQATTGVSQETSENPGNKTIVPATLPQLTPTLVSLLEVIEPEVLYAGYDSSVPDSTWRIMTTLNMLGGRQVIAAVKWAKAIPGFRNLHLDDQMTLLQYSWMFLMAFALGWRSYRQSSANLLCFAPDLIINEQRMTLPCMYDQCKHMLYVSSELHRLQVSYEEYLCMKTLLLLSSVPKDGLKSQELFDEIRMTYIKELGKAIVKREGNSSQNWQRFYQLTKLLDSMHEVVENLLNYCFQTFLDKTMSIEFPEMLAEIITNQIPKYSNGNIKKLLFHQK
Description: Glucocorticoid Receptor Binding Assay (Method 1):
A549 human lung epithelial cells (ATCC) are grown at a scale where gram quantity cell pellets are obtained. Harvested cell pellets are washed twice in cold phosphate buffered saline, centrifuged, and resuspended in cold assay binding buffer. The assay binding buffer consists of 10% glycerol, 50 mM Tris-HCl (pH7.2), 75 mM sodium chloride, 1.5 mM magnesium chloride, 1.5 mM EDTA, and 10 mM sodium molybdate. Cell suspensions were lysed via sonication, centrifuged, and the “extract” supernatant is snap frozen and stored at −80 C. until needed.
GR binding assays are performed in a final volume of 140 ul containing 50-200 ug of A549 cell extract and 1.86 nM [^3H]-dexamethasone (Amersham) plus varying concentrations of test compound or vehicle. Briefly, assays are prepared at RT in 96-well Fisher 3356 plates, each well containing 100 ul of A549 cell extract, 20 ul of [^3H]-dexamethasone, and 20 ul of test compound/vehicle. Incubations are carried out at 4 degrees Celsius for 16 hours. After incubation, 70 ul of 3× dextran-coated charcoal solution is added to each reaction, mixed, and incubated for 8 minutes at RT. 3×-dextran-coated charcoal solution consists of 250 ml assay binding buffer, 3.75 g Norit A charcoal (Sigma), and 1.25 g dextran T-70 (Amersham). Charcoal/unbound radioligand complexes are removed by centrifugation of the plate and 140 ul of supernatant from each well is transferred to another 96 well Optiplate (Packard Instruments). 200 ul of Microscint-20 scinillant (Packard Instruments) is added to each well and amount of receptor bound radioligand is determined using Packard Instruments TopCount instrument.

MR [2] = molecular target: T1, MR; set-up: host or cells: patients with advanced CHF; details: in combination with standard CHF therapy, patients suffering from advanced CHF; cited from earlier work

| SMILES | Ki (MR [1]) [nM] | Ki (glucocorticoid receptor) [nM] | melting point [°C] | reduced cardiac related mortality (MR [2]) [%] | reduced frequency of hospitalization (MR [2]) [%] |
| --- | --- | --- | --- | --- | --- |
| CC(C)n1c(=O)[nH]c2cc(C=C3c4ccccc4Sc4ccccc43)ccc21 [Example 16] | < 500 | – | – | – | – |
| O=c1[nH]c2cc(C=C3c4ccccc4Sc4ccccc43)ccc2n1-c1cccnc1 [Example 17] | < 500 | – | – | – | – |
| COc1cccc(C=C2c3ccccc3Cc3ccccc32)c1 [Example 18, 9-(3-Methoxy-benzylidene)-9,10-dihydro-anthracene] | < 500 | < 10000 | – | – | – |
| Oc1cccc(C=C2c3ccccc3Cc3ccccc32)c1 [Example 19, 3-(10H-Anthracen-9-ylidenemethyl)-phenol] | < 500 | < 10000 | 195.8 | – | – |
| CS(=O)(=O)Nc1cccc(C=C2c3ccccc3Oc3ccccc32)c1 [Example 20, N-(3-Xanthen-9-ylidenemethyl-phenyl)-methanesulfonamide] | < 500 | < 1000 | – | – | – |
| CC(=O)S[C@@H]1CC2=CC(=O)CC[C@]2(C)[C@H]2CC[C@@]3(C)[C@@H](CC[C@@]34CCC(=O)O4)[C@H]12 [spironolactone] | – | – | – | 30 | 35 |
